Consider 7 molecules from US20100004235A1, “Heterocyclic Substituted, Anellated Pyrazole Derivative and its uses” (BAYER HEALTHCARE AG, priority 2006, published 2010).

pIC50: −log10 of the molar value.

For one test, the system named is rabbit aorta rings. As to the kind of experiment: Vasorelaxant effect in vitro (rabbit aorta rings, phenylephrine-induced contraction). The note with it: Oryctolagus cuniculus; concentration reducing the height of the phenylephrine-induced contraction of rabbit aorta rings by 50%; 0.1% DMSO. Here is the method:
Rabbits are stunned by a blow to the neck and exsanguinated. The aorta is removed, freed from adhering tissue and divided into rings of a width of 1.5 mm. The rings are placed individually under an initial tension in 5 ml organ baths with Krebs-Henseleit solution which is at 37° C., is gassed with carbogen and has the following composition (in each case mM): NaCl: 119; KCl: 4.8; CaCl2×2H2O: 1; MgSO4×7H2O: 1.4; KH2PO4: 1.2; NaHCO3: 25; glucose: 10. The force of contraction is detected with Statham UC2 cells, amplified and digitized via A/D converters (DAS-1802 HC, Keithley Instruments, Munich) and recorded in parallel on chart recorders. Contractions are induced by cumulatively adding increasing concentrations of phenylephrine to the bath. After several control cycles, the substance to be investigated is added in each further run in increasing dosage, and the height of the contraction achieved is compared with the height of the contraction reached in the last preceding one. The concentration necessary to reduce the height of the control value by 50% is calculated from this (IC50 value). The standard application volume is 5 μl, the proportion of DMSO in the bath solution corresponds to 0.1%.
For orientation: pIC50 means −log10 of the IC50, conventionally taken in molar units. Low readings indicate a high IC50, high ones a low IC50. For the molecule `O=c1[nH]nc(-c2nn(Cc3ccccc3F)c3ncccc23)o1` [Example 3, 5-[1-(2-Fluorobenzyl)-1H-pyrazolo[3,4-b]pyridin-3-yl]-1,3,4-oxadiazol-2(3H)-one], the pIC50 is 6.21. On to `Fc1ccccc1Cn1nc(-c2noc(=S)[nH]2)c2cccnc21` [Example 7, 3-[1-(2-Fluorobenzyl)-1H-pyrazolo[3,4-b]pyridin-3-yl]-1,2,4-oxadiazole-5(4H)-thione], for which the pIC50 is 5.96. The same measure, in the same setting: in the case of `O=c1[nH]c(-c2nn(Cc3ccccc3F)c3ncccc23)ns1` [Example 2, 3-[1-(2-Fluorobenzyl)-1H-pyrazolo[3,4-b]pyridin-3-yl]-1,2,4-thiadiazol-5(4H)-one] it was 6.35; in that of `O=c1[nH]c(-c2nn(Cc3ccccc3F)c3ncccc23)no1` [Example 1, 3-[1-(2-Fluorobenzyl)-1H-pyrazolo[3,4-b]pyridin-3-yl]-1,2,4-oxadiazol-5(4H)-one], 5.68. The same measure, in the same setting: the result for `CC(=O)OCCn1nc(-c2nn(Cc3ccccc3F)c3ncccc23)[nH]c1=O` [Example 19, 2-{3-[1-(2-Fluorobenzyl)-1H-pyrazolo[3,4-b]pyridin-3-yl]-5-oxo-4,5-dihydro-1H-1,2,4-triazol-1-yl}ethyl acetate] reads 5.68; that for `O=c1[nH]c(-c2nn(Cc3ccccc3F)c3ncccc23)nn1CC(F)(F)F` [Example 18, 5-[1-(2-Fluorobenzyl)-1H-pyrazolo[3,4-b]pyridin-3-yl]-2-(2,2,2-trifluoroethyl)-2,4-dihydro-3H-1,2,4-triazol-3-one], 6.21.

Another test concerns vessel.
Experiment: not given
The settings on record: literature report; cited from earlier work.
Turning to `Fc1ccccc1Cn1nc(-c2nnn[nH]2)c2cccnc21` [1-(2-fluorobenzyl)-3-(1H-tetrazol-5-yl)-1H-pyrazolo[3,4-b]pyridine], the vessel-relaxing effect entry is “moderate”.
